Four molecules from patent US10426772B2, “Use of ergot alkaloids as an anthelmintic agent” (priority 2016, dated 2019) can be followed below.

The subject of assay [1] is S. mansoni. The assay can be described thus: Hepatic shift assay in infected mice. It is filed as in vivo, Schistosoma mansoni. The conditions noted are these: intraperitoneal, ergotamine 95, praziquantel 100, methylergometrine 50, lisuride 10, dihydroergotoxine 60 mg/kg, euthanized three hours later. The procedure: Female Swiss Webster mice were exposed to 200 S. mansoni cerceria (NMRI strain) at between 4-6 weeks old. For hepatic shift assays, infections were allowed to mature to 7 weeks, at which point mice were given test compounds by intraperitoneal injection and euthanized […]. Compounds were solubilized in 50 μL DMSO, and diluted in 200 μL 5% w/v trappsol (Cyclodextrin Technologies Development, THPB-p-31 g)+saline (NaCl 0.9%) solution. Immediately after being euthanized, mice were dissected to remove the liver from the portal vein, and the number of worms recovered from the portal vein, mesenteries and liver was recorded for each mouse.
Several experiments using a murine model of schistosomiasis were carried out in order to test the anthelmintic efficacy of Sm.5HTR ligands in vivo. First, the acute effect of drugs were assessed using a “heptic-shift” assay; mature parasites normally reside within the mesenteric vasculature, and upon exposure to anthelmintics they dislodge and are swept to the liver^12,13 where they may be cleared from the host^14 (FIG. 20B-F).
Given that the current anthelmintic therapy, praziquantel, disrupts worms and results in a rapid shift from the mesenteric vasculature to the liver (Melhorn et al., 1981) (FIG. 20B-F), it was hypothesized that Sm.5HTR ligands that disrupt parasite movement would cause a similar hepatic shift. Compounds were delivered by intraperitoneal injection and mice were euthanized three hours later in order to quantify the number of worms found in the mesentaries, portal vein or liver.

Assay [2] concerns the target Sm.5HTR (Schistosoma mansoni, UniProt G4V5G4). It is filed as cell-based. The method, then: (§1) HEK293 cells (ATCC CRL-1573.3) were cultured in DMEM supplemented with 10% fetal bovine serum (FBS), penicillin (100 units/mL), streptomycin (100 μg/mL), and L-glutamine (290 μg/mL). Cells were transiently transfected (ViaFect, Promega) as per the manufacturer's protocol at a density of 2×10^6 cells per T-25 cell-culture flask. Cells were transfected with plasmids encoding GloSensor (Promega) and either Sm.5HTR, (Smp_126730, GenBank accession number KF444051.1) or Sm.5HTRL (KX150867), both GPCRs being codon optimized for mammalian expression, or Hs.5HT7a (GenBank accession number NM_000872.4, R&D Systems) subcloned into pCS2(−). Cell culture reagents were from Invitrogen. Epitope tagged constructs were used to verify expression, and untagged constructs used for all luminescence assays.
(§2) For assays performed on adherent cells, HEK-293 cells were transferred one day post transfection to 96 well, solid white plates (Corning, cat #3917) coated with 0.01% poly-L-lysine (Sigma Aldrich) at a density of 5×10^4 cells/well in DMEM supplemented with 1% dialyzed FBS (Gibco). After overnight culture (37° C./5% CO2), media was decanted and replaced with 100 μL/well HBSS supplemented with 0.1% BSA, 20 mM HEPES (pH 7.4) and GloSensor™ reagent. Plates were allowed to equilibrate at room temperature for two hours prior to performing luminescence assays (GloMax-Multi Detection System plate reader, Promega). Conditions for individual assays were described as per figure legends. The standard assay to detect changes in cAMP utilized the F22 sensor in media supplemented with IBMX (200 μM). Ligands were added at a concentration of 20× per well for experiments (i.e., 5 μl of drug solution added to 100 μL of cells). […] For the resazurin reduction assay for cellular viability, cells were incubated with resazurin (final concentration, 10 μM) and tested ligands with fluorescence measurements (560 nm excitation/590 nm emission) made at 1.5 hours intervals.
(§3) The protocol for screening is shown schematically in FIG. 5A. HEK293 cells transiently transfected with either the human 5HT7 receptor (Hs.5HT7R) or the schistosome receptor (Sm.5HTR) were exposed to test ligands in a 96-well plate format. […] Luminescence was then read at a fixed time point (t=60 minutes, FIG. 5A). Hits were assigned as compounds that evoked a ≥50% decrease in luminescence output at the fixed time sampling point (FIG. 5B).

The test system of assay [3] is S. mansoni. The assay can be described thus: Curative efficacy against schistosome infection in mice. The class given is in vivo, Schistosoma mansoni. The settings on record: one week. The procedure:
Assays testing the curative efficacy of compounds against schistosome infection were performed on mice 6 weeks after exposure to cerceria. Drugs were dosed as follows. Ergotamine (95 mg/kg) was solubilized in 50 μL DMSO and diluted in 200 μL trappsol-saline and delivered by intraperitoneal injection twice a day for one week. Praziquantel (50 mg/kg) was similarly solubilized and injected intraperitoneally once a day for one week. The negative control cohort was given twice daily injections of DMSO (50 μL) added to 200 μL trappsol-saline solution. Mice were weighed and euthanized at 49 days post infection. Worms were harvested and counted as in the hepatic shift assay. Spleen and livers were weighed, and a segment of intestine was excised from the most distal region of the rectum to 10 cm above the cecum. The small and large intestines were separated by cutting immediately above and below the cecum. Each was cut lengthwise to expose the lumen and thoroughly washed in NaCl (1.2%) to remove excrement. Intestines were laid flat with the intestinal mucosa facing upwards and clamped between two glass plates to allow visual inspection of eggs using a stereo microscope.
Mice were injected with vehicle control (dmso), the current frontline anthelmintic (praziquantel) or ergotamine twice daily for one week at starting 42 days post infection.
All animals were sacrificed 49 days post infection, and worms were harvested by dissection of the mesenteric vasculature, portal vein and liver. […] Schistosomes lay large numbers of eggs within the host mesenteric system, and these progress through stages of development over approximately 5 days which can be scored looking at samples of the intestinal mucosa (Pellegrino et al., 1965). Therefore, it is possible to visually determine whether drug treatment has arrested parasite egg laying by observing a lack of developing eggs. Sections of both the large and small intestines were examined and eggs were manually counted and scored according to developmental stage (representative stages of embryo development shown in FIG. 20H-I, top).

Assay [4] has as its system S. mansoni schistosomules. Briefly: Schistosomule contractility assay. The class given is cell-based. The conditions noted are these: Schistosoma mansoni, read-out: IC50, inhibition of 5-HT evoked contractions. The procedure:
FIGS. 14A-14F. […] Effects of selected ligands on schistosomules. […] A contractile cycle is defined when a deviation of ≥20% of the average body length (dashed lines) occurs.
Biomphalaria glabrata (M-line) snails exposed to Schistosoma mansoni miracidia (Strain PR-1) were obtained from BEI Resources (Cat. number NR-21961) and cercaria were shed following exposure to light (1.5 hours). Cercaria were manually transformed into schistosomula by vortexing (3×45 seconds, each separated by 3 minutes on ice) and tails were removed by gradient centrifugation (24 mL Percoll, 4 mL 10×EMEM, 1.5 ml penicillin-streptomycin, 1 mL of 1M HEPES in 0.85% NaCl, 9.5 ml distilled water) at 500 g/15 minutes at 4° C. Supernatant containing tails was discarded, and schistosomules were resuspended in Basch media and incubated (37° C., 5% CO2) overnight before conducting mobility assays. For contractility experiments, somules were incubated in 5-HT free Basch media to resolve a basal contractility rate. […] Schistosomules were incubated in 24 well plates (about 200 schistosomules/0.5 mL media per well) for 30 minutes (37° C./5% CO2) prior to acquiring videos of schistosome movement (1 minute recordings/well) using a Nikon Coolpix 5700 camera affixed to a Nikon Eclipse TS100 microscope (10× objective). The WrmTrck plugin for ImageJ was used to quantify worm mobility (El-Shehabi et al., 2012). Briefly, the major axis of each schistosomule body length was extracted from the raw output of WrmTrck and an average length was determined for the duration of the recording. Contractions were quantified by determining the number of episodes during which the worm body length deviated from the average by over 20%. S. mansoni protocols were approved by the Iowa State University Institutional Biosafety Committee.

The next assay deals with T1, Hs.5HT7R (Homo sapiens, UniProt P34969).
T1 construct: host or cells: HEK293 (ATCC CRL-1573.3), transient, pCS2(−), co-transfected with GloSensor
The assay can be described thus: GloSensor cAMP assay, HEK293 cells transiently transfected with Hs.5HT7R. The class given is cell-based. The procedure:
as §1, §2, §3

The test system of another assay is adult schistosomes. Briefly: Adult schistosome mobility assay (Example 1). The class given is cell-based, Schistosoma mansoni.
Another assay deals with Sm.5HTRL (Schistosoma mansoni, UniProt A0A173FEI8). Briefly: GloSensor cAMP assay, HEK293 cells transiently transfected with Sm.5HTRL. The class given is cell-based. The settings on record: antagonists 10 μM; 5-HT EC80 dose 0.8 μM (FIG. 8). The procedure: as §1, §2
In assay [5] the target is Sm.5HTR (Schistosoma mansoni, UniProt A0A173FEI8). The assay can be described thus: cell-based. The conditions noted are these: HEK293; agonist read, 45 minutes; read-out: Sm.5HTR Emax. The procedure:
HEK293 cells (ATCC CRL-1573.3) were cultured in growth media consisting of DMEM supplemented with GlutaMAX (Gibco cat #10566016)+10% heat inactivated fetal bovine serum and penicillin-streptomycin (100 units/mL, ThermoFisher). Stable cell lines for the pGloSensor-22F cAMP Plasmid (Promega) and schistosome 5HTRs in pcDNA3.1(−) were selected with hygromycin (200 μg/mL) and G418 (400 μg/mL). The correct identity of each stably expressed sequence was verified by isolating total RNA from each stable line (TRIzol Reagent, Ambion) and amplifying the sequence of interest with gene specific primers flanking the 5′ and 3′ regions of the cds (SuperScript® III One-Step RT-PCR System, Invitrogen). PCR products were ligated into a TA cloning vector (pGEM-T Easy, Promega) and sequenced.
HEK293 lines stably expressing both the 22F cAMP sensor and Sm.5HTR were cultured in growth media supplemented with 10% dialyzed FRS. For cAMP assays in 96 well format, cells cultured in T-75 flasks were trypsinized (TrypLE Express, Gibco) and plated in solid white 96 well plates (Costar cat #3917) the day prior to assay at a density of 2.5×10^4 cells/well. The following day media was removed and replaced with assay buffer consisting of HBSS buffered with HEPES (20 mM, pH 7.4)+BSA (0.1% w/v) and D-luciferin sodium salt (1 mg/mL, Gold Biotechnology). Plates were equilibrated at room temperature for 1 hour, at which point 3-Isobutyl-1-methylxanthine (IBMX 200 μM, Sigma Aldrich) was added. Plates were equilibrated a further 30 minutes prior to test compound addition. […] Readings performed in 384 well format were modified so that cells were assayed in suspension. Cells were grown to 70% confluence in T-75 flasks, trypsinized and pelleted (300 RCF×5 minutes). Media was removed and cells were resuspended in 25 mL assay buffer supplemented with IBMX (200 μM). A 96 channel semi-automated pipet (Eppendorf epMotion 96) delivered 55 μL of cell suspension per well (5000 cells/well) into solid white 384 plates (Corning 3574).

Sequence of Sm.5HTR (Schistosoma mansoni, UniProt G4V5G4) (G4V5G4 entry or part of it): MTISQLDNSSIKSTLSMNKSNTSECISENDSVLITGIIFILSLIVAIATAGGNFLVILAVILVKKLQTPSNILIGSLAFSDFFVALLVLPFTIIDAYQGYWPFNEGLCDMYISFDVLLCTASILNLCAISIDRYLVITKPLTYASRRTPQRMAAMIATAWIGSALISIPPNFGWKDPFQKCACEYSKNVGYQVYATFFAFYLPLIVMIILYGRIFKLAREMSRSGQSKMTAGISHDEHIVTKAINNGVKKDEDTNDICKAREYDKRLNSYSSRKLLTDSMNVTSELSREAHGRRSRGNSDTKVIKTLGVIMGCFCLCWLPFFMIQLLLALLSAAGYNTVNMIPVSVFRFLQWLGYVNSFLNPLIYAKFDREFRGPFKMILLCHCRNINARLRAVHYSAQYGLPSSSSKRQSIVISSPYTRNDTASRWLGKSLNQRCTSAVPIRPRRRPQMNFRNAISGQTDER
T1 sequence (P34969 1-445 isoform P34969-2): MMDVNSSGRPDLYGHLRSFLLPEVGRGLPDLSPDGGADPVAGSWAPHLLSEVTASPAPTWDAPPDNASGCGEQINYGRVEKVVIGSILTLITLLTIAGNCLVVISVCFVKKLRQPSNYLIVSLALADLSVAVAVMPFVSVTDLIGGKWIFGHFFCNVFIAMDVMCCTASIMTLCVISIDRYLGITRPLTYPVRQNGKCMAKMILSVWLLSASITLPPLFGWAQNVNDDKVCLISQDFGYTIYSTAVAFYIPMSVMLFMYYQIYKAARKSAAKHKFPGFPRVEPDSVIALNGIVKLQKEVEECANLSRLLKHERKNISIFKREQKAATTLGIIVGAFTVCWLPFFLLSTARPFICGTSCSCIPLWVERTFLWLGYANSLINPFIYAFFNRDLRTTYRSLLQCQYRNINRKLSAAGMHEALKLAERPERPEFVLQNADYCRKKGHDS
Sequence of Sm.5HTRL (A0A173FEI8 entry or part of it): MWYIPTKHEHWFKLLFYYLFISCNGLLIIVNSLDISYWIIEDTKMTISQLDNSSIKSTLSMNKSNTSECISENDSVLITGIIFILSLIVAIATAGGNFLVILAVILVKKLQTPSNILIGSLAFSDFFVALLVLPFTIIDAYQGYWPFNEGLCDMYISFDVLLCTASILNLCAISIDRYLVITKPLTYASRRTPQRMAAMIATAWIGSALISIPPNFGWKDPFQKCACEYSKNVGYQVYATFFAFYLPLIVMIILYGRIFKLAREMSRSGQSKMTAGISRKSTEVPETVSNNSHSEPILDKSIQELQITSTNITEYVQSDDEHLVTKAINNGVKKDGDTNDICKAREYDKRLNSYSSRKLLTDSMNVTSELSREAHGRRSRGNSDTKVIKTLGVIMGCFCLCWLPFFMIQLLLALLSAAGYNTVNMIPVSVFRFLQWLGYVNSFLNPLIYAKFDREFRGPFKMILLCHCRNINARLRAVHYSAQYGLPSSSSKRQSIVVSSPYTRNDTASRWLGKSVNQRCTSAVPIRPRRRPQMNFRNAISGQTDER
Sequence of Sm.5HTR (Schistosoma mansoni, UniProt A0A173FEI8) (A0A173FEI8 entry or part of it): as above

With `CCN(CC)C(=O)N[C@H]1C=C2c3cccc4[nH]cc(c34)C[C@H]2N(C)C1` [lisuride], the “% of worm burden found in the liver” value with S. mansoni [1] was “no difference relative to control animals”.

Turning to `O=C(C1CCCCC1)N1CC(=O)N2CCc3ccccc3C2C1` (stereo not shown) [PZQ, praziquantel], the “modulation of Sm.5HTR receptor activity” value at Sm.5HTR [2] (doses that would convey an antiparasitic effect, FIGS. 10A and E) is “did not reveal any modulation of receptor activity”. Moreover, in the assay with S. mansoni [3] (infected mice, praziquantel 50 mg/kg i.p. once a day), the “protection from liver and spleen enlargement” value is “no significant protection from liver and spleen enlargement”. The “decrease in intestinal egg counts” value in the assay with S. mansoni [3] (mice, ergotamine 95 mg/kg twice a day, praziquantel 50 mg/kg once a day, i.p., versus vehicle control) is 99%. In the assay on S. mansoni [1], the “% of worm burden found in the liver” value came to 68.8±14.1%.

Regarding `COc1cc2c(cc1OC)[C@@H]1Cc3ccc(OC)c(OC)c3CN1CC2` [rotundine], the IC50 in assay [4] is not above 1 µM; on Sm.5HTR [2] (read-out: IC50, antagonism of 5-HT evoked cAMP generation at Sm.5HTR, 5-HT at EC80, F22 sensor, IBMX), 0.701 ± 0.207 µM. For the same molecule, the “effect on Hs.5HT7” value on Hs.5HT7R (concentrations up to 50 μM) is recorded as “lacking any effect”. Moreover, the “potency (IC50) at Hs.5HT7R, lower right quadrant of FIG. 13” value at Hs.5HT7R (inhibition of cAMP generation) was “supra-μM potency”. In addition, at Sm.5HTR [2] (antagonism of 5-HT evoked cAMP, FIGS. 7, 12, 13), the “selectivity Sm.5HTR versus Hs.5HT7R (IC50 (Hs.5HT7R)/IC50 (Sm.5HTR)), in words” value is “clear selectivity for Sm.5HTR”. Further, the “potency (IC50) at Sm.5HTR, lower right quadrant of FIG. 13” value on Sm.5HTR [2] (inhibition of cAMP generation) is listed as “sub-μM potency”. The “effect on 5-HT stimulated movement of adult worms” value with adult schistosomes (5-HT 100 μM, male and female worms (FIG. 15G-I)) is listed as “inhibited the 5-HT evoked increases in worm movement”. In addition, the “effect on basal movement of adult worms” value in the assay on adult schistosomes (no 5-HT, male and female worms (FIG. 15D-F)) is “markedly inhibited worm movements at rest”. Further, on Sm.5HTRL, the “inhibition of 5-HT evoked cAMP generation through Sm.5HTRL” value is given as “inhibited 5-HT evoked cAMP generation through Sm.5HTRL”.

In the case of `CC[C@@H](CO)NC(=O)[C@@H]1C=C2c3cccc4[nH]cc(c34)C[C@H]2N(C)C1` [methylergometrine], the Emax at Sm.5HTR [5] was 50 ± 17%. Also, the “% of worm burden found in the liver” value with S. mansoni [1] was found to be 50.6±28.5%.
